Results taken from PubChem BioAssay (NCI).
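Test compounds were applied to cells in 96-well plates for 48 hours at 5 doses. At the GI50, growth is halved. The concentration for full growth arrest is given as TGI.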

Legend:
Experiment in all cases: inhibition of tumour cell growth, NCI panel, 48 h; in the data active = GI50 below about 0.43 µM; inactive = the rest
[1] = test system: 786-0 renal
[2] = test system: A498 renal
[3] = test system: A549 NSCLC
[4] = test system: ACHN renal
[5] = test system: BT-549 breast
[6] = test system: CAKI-1 renal
[7] = test system: CCRF-CEM leukemia
[8] = test system: COLO 205 colon
[9] = test system: DU-145 prostate
[10] = test system: EKVX NSCLC
[11] = test system: HCC-2998 colon
[12] = test system: HCT-116 colon
[13] = test system: HCT-15 colon
[14] = test system: HL-60(TB) leukemia
[15] = test system: HOP-62 NSCLC
[16] = test system: HOP-92 NSCLC
[17] = test system: HS 578T breast
[18] = test system: HT29 colon
[19] = test system: IGROV1 ovarian
[20] = test system: K-562 leukemia
[21] = test system: KM12 colon
[22] = test system: LOX IMVI melanoma
[23] = test system: M14 melanoma
[24] = test system: MALME-3M melanoma
[25] = test system: MCF7 breast
[26] = test system: MDA-MB-231 breast
[27] = test system: MDA-MB-435
[28] = test system: MOLT-4 leukemia
[29] = test system: NCI-H226 lung
[30] = test system: NCI-H23 lung
[31] = test system: NCI-H460 lung
[32] = test system: NCI-H522 lung
[33] = test system: NCI/ADR-RES ovarian
[34] = test system: OVCAR-3 ovarian
[35] = test system: OVCAR-4 ovarian
[36] = test system: OVCAR-5 ovarian
[37] = test system: OVCAR-8 ovarian
[38] = test system: PC-3 prostate
[39] = test system: RPMI-8226 leukemia
[40] = test system: RXF 393 renal
[41] = test system: SF-268 CNS
[42] = test system: SF-295 CNS
[43] = test system: SF-539 CNS
[44] = test system: SK-MEL-2 melanoma
[45] = test system: SK-MEL-28 melanoma
[46] = test system: SK-MEL-5 melanoma
[47] = test system: SK-OV-3 ovarian
[48] = test system: SN12C renal
[49] = test system: SNB-19 CNS
[50] = test system: SNB-75 CNS
[51] = test system: SW-620 colon
[52] = test system: T-47D breast
[53] = test system: TK-10 renal
[54] = test system: U251 CNS
[55] = test system: UACC-257 melanoma
[56] = test system: UACC-62 melanoma
[57] = test system: UO-31 renal
[58] = test system: SR leukemia

O=c1oc(-c2ccc(O)c(O)c2)cc2cccc(O)c12
80.2 µM: TGI [42]
> 64.7 µM: TGI [19]
46.9 µM: TGI [26]
79.1 µM: TGI [54]
46.1 µM: TGI [48]
> 68.2 µM: TGI [31]
37.2 µM: TGI [22]
51.3 µM: TGI [33]
50.2 µM: TGI [14]
> 50.8 µM: TGI [32]
> 86.5 µM: TGI [24]
52 µM: TGI [28]
> 46.1 µM: TGI [7]
49 µM: TGI [5]
73.2 µM: TGI [17]
32.1 µM: TGI [21]
> 48.3 µM: TGI [8]
42.4 µM: TGI [2]
37.3 µM: TGI [56]
9.46 µM: TGI [52]
85.9 µM: TGI [1]
43.4 µM: TGI [16]
51.2 µM: TGI [10]
51.8 µM: TGI [23]
60.3 µM: TGI [27]
86.5 µM: TGI [36]
23.4 µM: TGI [46]
inactive: GI50 [18] 28.1 µM | GI50 [22] 12.5 µM | GI50 [26] 14.1 µM | GI50 [29] 15.2 µM | GI50 [45] 24.6 µM | GI50 [54] 17.1 µM | GI50 [56] 16.6 µM
58.7 µM: TGI [29]
> 100 µM: TGI [3] | TGI [13] | TGI [18] | TGI [37] | TGI [50]
74.9 µM: TGI [47]
47.3 µM: TGI [15] | TGI [38]
37 µM: TGI [11]
> 54.1 µM: TGI [25]
> 76.9 µM: TGI [49]
23.7 µM: TGI [12]
38.7 µM: TGI [6]
> 85.2 µM: TGI [41]
69.3 µM: TGI [40]
> 62.4 µM: TGI [34]
> 85.6 µM: TGI [43]
70.2 µM: TGI [9]
53.6 µM: TGI [30]
69.2 µM: TGI [35]
78.2 µM: TGI [51]
> 49.1 µM: TGI [53]
49.2 µM: TGI [20]
> 81.7 µM: TGI [4]
> 59.4 µM: TGI [57]
29.5 µM: TGI [39]
61.3 µM: TGI [55]
69.7 µM: TGI [44]
87.3 µM: TGI [45]

CN(C)C(=S)S
59.4 µM: TGI [11]
> 78.9 µM: TGI [39]
> 93.3 µM: TGI [30]
> 20.4 µM: TGI [32]
> 100 µM: TGI [1] | TGI [2] | TGI [3] | TGI [4] | TGI [5] | TGI [6] | TGI [8] | TGI [9] | TGI [10] | TGI [13] | TGI [16] | TGI [17] | TGI [18] | TGI [19] | TGI [20] | TGI [21] | TGI [22] | TGI [23] | TGI [25] | TGI [26] | TGI [27] | TGI [28] | TGI [29] | TGI [31] | TGI [33] | TGI [35] | TGI [36] | TGI [37] | TGI [38] | TGI [40] | TGI [41] | TGI [42] | TGI [43] | TGI [45] | TGI [46] | TGI [47] | TGI [48] | TGI [49] | TGI [50] | TGI [51] | TGI [52] | TGI [53] | TGI [54] | TGI [55] | TGI [56] | TGI [57]
> 90.2 µM: TGI [24]
> 59.9 µM: TGI [12]
28.3 µM: TGI [34]
> 93.8 µM: TGI [44]

CC1=C2C(=O)c3ccccc3C2=C(C)S(=O)(=O)O1
> 10 µM: TGI [1] | TGI [3] | TGI [4] | TGI [6] | TGI [7] | TGI [8] | TGI [14] | TGI [15] | TGI [19] | TGI [20] | TGI [23] | TGI [24] | TGI [25] | TGI [27] | TGI [28] | TGI [30] | TGI [31] | TGI [33] | TGI [35] | TGI [36] | TGI [39] | TGI [40] | TGI [41] | TGI [44] | TGI [45] | TGI [46] | TGI [47] | TGI [50] | TGI [58] | TGI [51] | TGI [52] | TGI [54] | TGI [56]

c1ccc2c(c1)NC(C1OC3CCCN3C1C1Nc3ccccc3S1)S2 (centres undefined)
46.7 µM: TGI [14]
76.3 µM: TGI [39]
> 100 µM: TGI [1] | TGI [2] | TGI [3] | TGI [4] | TGI [5] | TGI [6] | TGI [7] | TGI [8] | TGI [9] | TGI [10] | TGI [11] | TGI [12] | TGI [13] | TGI [15] | TGI [16] | TGI [17] | TGI [18] | TGI [19] | TGI [20] | TGI [21] | TGI [23] | TGI [24] | TGI [25] | TGI [27] | TGI [28] | TGI [30] | TGI [31] | TGI [32] | TGI [34] | TGI [35] | TGI [36] | TGI [37] | TGI [38] | TGI [41] | TGI [42] | TGI [43] | TGI [45] | TGI [46] | TGI [47] | TGI [48] | TGI [49] | TGI [50] | TGI [58] | TGI [51] | TGI [53] | TGI [54] | TGI [55] | TGI [56] | TGI [57]
97 µM: TGI [40]

CC(C)c1ccc(C(=O)Nc2sc3c(CN(C)C)c(O)ccc3c2C(N)=O)cc1
> 100 µM: TGI [10] | TGI [16] | TGI [19] | TGI [21] | TGI [26] | TGI [33] | TGI [36] | TGI [37] | TGI [38] | TGI [47] | TGI [48] | TGI [49] | TGI [50]
4.55 µM: TGI [20]
active: GI50 [20] 0.409 µM
4.38 µM: TGI [14]
8.79 µM: TGI [58]
9.37 µM: TGI [7]
8.51 µM: TGI [28]
inactive: GI50 [7] 2.2 µM | GI50 [10] 6.28 µM | GI50 [14] 1.74 µM | GI50 [16] 3.48 µM | GI50 [19] 2.02 µM | GI50 [21] 0.728 µM | GI50 [26] 3.27 µM | GI50 [28] 2.32 µM | GI50 [33] 2.64 µM | GI50 [36] 2660 nM | GI50 [37] 3.07 µM | GI50 [38] 2.55 µM | GI50 [47] 6.72 µM | GI50 [48] 2.2 µM | GI50 [49] 3.23 µM | GI50 [50] 2.09 µM | GI50 [58] 2890 nM

CCOC1Oc2ccccc2-c2oc(=O)c(Sc3ccc(C)cc3)cc21 (centres undefined)
95.3 µM: TGI [46]
82.9 µM: TGI [32]
91.6 µM: TGI [24]
inactive: GI50 [1] 36.3 µM | GI50 [2] 34.4 µM | GI50 [3] 19.3 µM | GI50 [4] 28.8 µM | GI50 [5] 29.5 µM | GI50 [6] 35.4 µM | GI50 [7] 14.5 µM | GI50 [8] 25.2 µM | GI50 [9] 31.8 µM | GI50 [10] 42.8 µM | GI50 [11] 52.2 µM | GI50 [13] 27.6 µM | GI50 [14] 8.98 µM | GI50 [15] 58.5 µM | GI50 [16] 10.8 µM | GI50 [17] 34.5 µM | GI50 [18] 32 µM | GI50 [19] 26 µM | GI50 [20] 15.4 µM | GI50 [21] 34.4 µM | GI50 [22] 24 µM | GI50 [23] 48.2 µM | GI50 [24] 24.6 µM | GI50 [25] 19.8 µM | GI50 [26] 16.9 µM | GI50 [27] 23.6 µM | GI50 [28] 6.73 µM | GI50 [29] 36.8 µM | GI50 [30] 40.4 µM | GI50 [31] 20 µM | GI50 [32] 18.4 µM | GI50 [33] 35 µM | GI50 [34] 18.1 µM | GI50 [35] 25.1 µM | GI50 [36] > 100000 nM | GI50 [37] 51 µM | GI50 [38] 17.8 µM | GI50 [39] 9.66 µM | GI50 [41] 27.9 µM | GI50 [42] 19.2 µM | GI50 [43] 62.3 µM | GI50 [44] 49.4 µM | GI50 [45] 84.2 µM | GI50 [46] 26 µM | GI50 [47] 20.5 µM | GI50 [48] 29.5 µM | GI50 [49] 29.1 µM | GI50 [50] 32.6 µM | GI50 [51] 37.5 µM | GI50 [52] 1630 nM | GI50 [53] 30.8 µM | GI50 [54] 25.1 µM | GI50 [55] 11.8 µM | GI50 [56] 17.9 µM | GI50 [57] 16.4 µM
67.7 µM: TGI [26]
48.4 µM: TGI [16]
> 100 µM: TGI [1] | TGI [2] | TGI [4] | TGI [5] | TGI [6] | TGI [8] | TGI [9] | TGI [10] | TGI [11] | TGI [13] | TGI [15] | TGI [17] | TGI [18] | TGI [19] | TGI [20] | TGI [21] | TGI [22] | TGI [23] | TGI [25] | TGI [27] | TGI [29] | TGI [30] | TGI [31] | TGI [33] | TGI [34] | TGI [35] | TGI [36] | TGI [37] | TGI [38] | TGI [42] | TGI [43] | TGI [44] | TGI [45] | TGI [47] | TGI [48] | TGI [49] | TGI [50] | TGI [51] | TGI [53] | TGI [54] | TGI [56] | TGI [57]
50.2 µM: TGI [7]
59 µM: TGI [3]
75.8 µM: TGI [41]
45.8 µM: TGI [55]
35.5 µM: TGI [39]
60.5 µM: TGI [14]
28.3 µM: TGI [28]
56.4 µM: TGI [52]
